According to patent US20210395256A1, “TYROSINE KINASE INHIBITORS, COMPOSITIONS AND METHODS THERE OF” (Betta Pharmaceuticals Co., Ltd., priority 2018, published 2021):
Structures can show the parent of a compound that is named as a salt.

These compounds were tested against TrkA kinase (Homo sapiens, UniProt P04629) (assay: TrkA kinase assay (mobility shift assay)). Settings: class symbols; read-out: Trk A Kinase IC50.
Assay type: biochemical
Procedure, shortened: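 Caliper mobility-shift readout of FAM-labelled peptide conversion by TrkA in 50 mM HEPES pH 7.5, 0.0015% Brij-35, with ATP; enzyme preincubated 10 min with compound (10-point dilution), reaction at 28 °C, EDTA stop. Inhibition relative to DMSO and no-enzyme controls; IC50 by four-parameter fit.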

Chain of TrkA kinase (P04629 33-796): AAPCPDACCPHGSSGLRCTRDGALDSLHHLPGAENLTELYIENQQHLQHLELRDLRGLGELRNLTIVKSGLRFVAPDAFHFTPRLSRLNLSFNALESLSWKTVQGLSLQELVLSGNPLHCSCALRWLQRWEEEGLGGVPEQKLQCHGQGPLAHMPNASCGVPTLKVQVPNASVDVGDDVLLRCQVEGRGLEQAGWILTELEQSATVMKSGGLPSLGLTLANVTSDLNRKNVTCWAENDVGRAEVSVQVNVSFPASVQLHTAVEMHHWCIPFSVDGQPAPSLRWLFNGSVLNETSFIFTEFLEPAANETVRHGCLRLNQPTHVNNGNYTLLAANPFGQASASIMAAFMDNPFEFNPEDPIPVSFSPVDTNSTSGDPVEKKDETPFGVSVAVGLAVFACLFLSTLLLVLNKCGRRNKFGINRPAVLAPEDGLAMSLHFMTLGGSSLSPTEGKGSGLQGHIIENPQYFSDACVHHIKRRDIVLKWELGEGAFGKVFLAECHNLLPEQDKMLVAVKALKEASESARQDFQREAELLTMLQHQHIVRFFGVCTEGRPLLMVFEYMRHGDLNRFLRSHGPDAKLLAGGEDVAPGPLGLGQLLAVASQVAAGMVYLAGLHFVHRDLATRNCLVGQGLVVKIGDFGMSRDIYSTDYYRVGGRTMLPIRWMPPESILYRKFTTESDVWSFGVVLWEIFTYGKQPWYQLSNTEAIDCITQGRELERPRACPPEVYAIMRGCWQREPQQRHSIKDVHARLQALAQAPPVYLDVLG

Row | IC50 [µM] | SMILES
1 | ≤ 0.01 | COC(=O)c1ccc(F)c2nc(-c3cnn4ccc(N5CCC[C@@H]5c5cc(F)ccc5F)nc34)oc12 [Compound 175, methyl (R)-2-(5-(2-(2,5-difluorophenyl)pyrrolidin-1-yl)pyrazolo[1,5-a]pyrimidin-3-yl)-4-fluorobenzo[d]oxazole-7-carboxylate]
2 | 0.01 to 0.05 | COc1cc2nc(-c3cnn4ccc(N5CCC[C@@H]5c5cc(F)ccc5F)nc34)nn2cc1OC [Compound 182, (R)-2-(5-(2-(2,5-difluorophenyl)pyrrolidin-1-yl)pyrazolo[1,5-a]pyrimidin-3-yl)-6,7-dimethoxy-[1,2,4]triazolo[1,5-a]pyridine]
3 | > 0.05 | Fc1ccc(F)c([C@H]2CCCN2c2ccn3ncc(-c4nc5ccc(N6CCN7CCC[C@@H]7C6)cc5[nH]4)c3n2)c1 [Compound 62, 5-((R)-2-(2,5-difluorophenyl)pyrrolidin-1-yl)-3-(6-((R)-hexahydropyrrolo[1,2-a]pyrazin-2(1H)-yl)-1H-benzo[d]imidazol-2-yl)pyrazolo[1,5-a]pyrimidine]
4 | 0.01 to 0.05 | O[C@@H]1C[C@](O)(c2nnc(-c3cnn4ccc(N5CCC[C@@H]5c5cc(F)ccc5F)nc34)[nH]2)C[C@@H](O)[C@H]1O [Compound 60, (1R,2S,3R,5S)-5-(5-(5-((R)-2-(2,5-difluorophenyl)pyrrolidin-1-yl)pyrazolo[1,5-a]pyrimidin-3-yl)-4H-1,2,4-triazol-3-yl)cyclohexane-1,2,3,5-tetraol]
5 | > 0.05 | Cn1c(-c2cnn3ccc(N4CCC[C@@H]4c4cc(F)ccc4F)nc23)nc2cc3c(cc21)OCCO3 [Compound 83, (R)-2-(5-(2-(2,5-difluorophenyl)pyrrolidin-1-yl)pyrazolo[1,5-a]pyrimidin-3-yl)-1-methyl-6,7-dihydro-1H-[1,4]dioxino[2′,3′:4,5]benzo[1,2-d]imidazole]
6 | ≤ 0.01 | N#CCOc1cc2nc(-c3cnn4ccc(N5CCC[C@@H]5c5cc(F)ccc5F)nc34)[nH]c2cc1OCC#N [Compound 119, (R)-2,2′-((2-(5-(2-(2,5-difluorophenyl)pyrrolidin-1-yl)pyrazolo[1,5-a]pyrimidin-3-yl)-1H-benzo[d]imidazole-5,6-diyl)bis(oxy))diacetonitrile]
7 | 0.01 to 0.05 | NC(=O)N1CCc2nc(-c3cnn4ccc(N5CCC[C@@H]5c5cc(F)ccc5F)nc34)sc2C1 [Compound 191, (R)-2-(5-(2-(2,5-difluorophenyl)pyrrolidin-1-yl)pyrazolo[1,5-a]pyrimidin-3-yl)-6,7-dihydrothiazolo[5,4-c]pyridine-5(4H)-carboxamide]
8 | 0.01 to 0.05 | COc1cc2[nH]c(-c3cnn4ccc(N5CCC[C@H]5c5cc(F)ccc5F)nc34)nc2cc1C#N [Compound 197, (S)-2-(5-(2-(2,5-difluorophenyl)pyrrolidin-1-yl)pyrazolo[1,5-a]pyrimidin-3-yl)-6-methoxy-1H-benzo[d]imidazole-5-carbonitrile]
9 | > 0.05 | Fc1ccc(F)c([C@H]2CCCN2c2ccn3ncc(-c4nnc(-c5ccc(Oc6ccccc6)cc5)[nH]4)c3n2)c1 [Compound 58, (R)-5-(2-(2,5-difluorophenyl)pyrrolidin-1-yl)-3-(5-(4-phenoxyphenyl)-4H-1,2,4-triazol-3-yl)pyrazolo[1,5-a]pyrimidine]
10 | ≤ 0.01 | Fc1ccc(F)c([C@H]2CCCN2c2ccn3ncc(-c4nc5c(s4)CNCC5)c3n2)c1 [Compound 190, (R)-2-(5-(2-(2,5-difluorophenyl)pyrrolidin-1-yl)pyrazolo[1,5-a]pyrimidin-3-yl)-4,5,6,7-tetrahydrothiazolo[5,4-c]pyridine]
11 | > 0.05 | COc1cc2[nH]c(-c3cnn4ccc(N5CCC[C@@H]5c5ccc(F)cc5)nc34)nc2cc1C#N [Compound 198, (R)-2-(5-(2-(4-fluorophenyl)pyrrolidin-1-yl)pyrazolo[1,5-a]pyrimidin-3-yl)-6-methoxy-1H-benzo[d]imidazole-5-carbonitrile]
12 | ≤ 0.01 | N#Cc1cc2nc(-c3cnn4ccc(N5CCC[C@@H]5c5cc(F)ccc5F)nc34)[nH]c2cc1N1CCC[C@H]1C#N [Compound 165, 6-((S)-2-cyanopyrrolidin-1-yl)-2-(5-((R)-2-(2,5-difluorophenyl)pyrrolidin-1-yl)pyrazolo[1,5-a]pyrimidin-3-yl)-1H-benzo[d]imidazole-5-carbonitrile]
13 | ≤ 0.01 | COc1cc2nc(-c3c(N)nn4ccc(N5CCC[C@@H]5c5cc(F)ccc5F)nc34)[nH]c2cc1OC [Compound 193, (R)-5-(2-(2,5-difluorophenyl)pyrrolidin-1-yl)-3-(5,6-dimethoxy-1H-benzo[d]imidazol-2-yl)pyrazolo[1,5-a]pyrimidin-2-amine]
14 | ≤ 0.01 | N#Cc1cc2nc(-c3cnn4ccc(N5CCC[C@@H]5c5cc(F)ccc5F)nc34)[nH]c2cc1C(N)=O [Compound 154, (R)-5-cyano-2-(5-(2-(2,5-difluorophenyl)pyrrolidin-1-yl)pyrazolo[1,5-a]pyrimidin-3-yl)-1H-benzo[d]imidazole-6-carboxamide]
15 | ≤ 0.01 | O=C(O)c1ccc2[nH]c(-c3cnn4ccc(N5CCC[C@@H]5c5cc(F)ccc5F)nc34)cc2c1 [Compound 185, (R)-2-(5-(2-(2,5-difluorophenyl)pyrrolidin-1-yl)pyrazolo[1,5-a]pyrimidin-3-yl)-1H-indole-5-carboxylic acid]
16 | ≤ 0.01 | COc1cc2nc(-c3c(N)nn4ccc(N5CCC[C@@H]5c5cc(F)ccc5F)nc34)[nH]c2cc1C#N [Compound 194, (R)-2-(2-amino-5-(2-(2,5-difluorophenyl)pyrrolidin-1-yl)pyrazolo[1,5-a]pyrimidin-3-yl)-5-methoxy-1H-benzo[d]imidazole-6-carbonitrile]
17 | ≤ 0.01 | CCOc1cc2[nH]c(-c3cnn4ccc(N5CCC[C@@H]5c5cc(F)ccc5F)nc34)nc2cc1C#N [Compound 140, (R)-2-(5-(2-(2,5-difluorophenyl)pyrrolidin-1-yl)pyrazolo[1,5-a]pyrimidin-3-yl)-6-ethoxy-1H-benzo[d]imidazole-5-carbonitrile]

Same assay, conditions: numeric values; read-out: Trk A Kinase IC50

Row | IC50 [µM] | SMILES
18 | 0.0012 | N#Cc1cc2nc(-c3cnn4ccc(N5CCC[C@@H]5c5cc(F)ccc5F)nc34)oc2cc1O [Compound 177, (R)-2-(5-(2-(2,5-difluorophenyl)pyrrolidin-1-yl)pyrazolo[1,5-a]pyrimidin-3-yl)-6-hydroxybenzo[d]oxazole-5-carbonitrile]
19 | 0.0009 | COc1cc2[nH]c(-c3cnn4ccc(N5CCC[C@@H]5c5cc(F)ccc5F)nc34)nc2cc1C(=O)N(C)C [Compound 161, (R)-2-(5-(2-(2,5-difluorophenyl)pyrrolidin-1-yl)pyrazolo[1,5-a]pyrimidin-3-yl)-6-methoxy-N,N-dimethyl-1H-benzo[d]imidazole-5-carboxamide]
20 | 0.00528 | NC12CC(c3nnc(-c4cnn5ccc(N6CCC[C@@H]6c6cc(F)ccc6F)nc45)[nH]3)(C1)C2 [Compound 44, (R)-3-(5-(5-(2-(2,5-difluorophenyl)pyrrolidin-1-yl)pyrazolo[1,5-a]pyrimidin-3-yl)-4H-1,2,4-triazol-3-yl)bicyclo[1.1.1]pentan-1-amine]
21 | 0.00218 | Fc1ccc(F)c([C@H]2CCCN2c2ccn3ncc(-c4nc5ccc(OC(F)F)cc5[nH]4)c3n2)c1 [Compound 81, (R)-3-(6-(difluoromethoxy)-1H-benzo[d]imidazol-2-yl)-5-(2-(2,5-difluorophenyl)pyrrolidin-1-yl)pyrazolo[1,5-a]pyrimidine]
22 | 0.0005 | Cc1cncc2nc(-c3cnn4ccc(N5CCC[C@@H]5c5cc(F)ccc5F)nc34)[nH]c12 [Compound 99, (R)-2-(5-(2-(2,5-difluorophenyl)pyrrolidin-1-yl)pyrazolo[1,5-a]pyrimidin-3-yl)-7-methyl-1H-imidazo[4,5-c]pyridine]
23 | 0.0038 | Fc1ccc(F)c([C@H]2CCCN2c2ccn3ncc(-c4nc5ccc(C(F)(F)F)nc5[nH]4)c3n2)c1 [Compound 114, (R)-2-(5-(2-(2,5-difluorophenyl)pyrrolidin-1-yl)pyrazolo[1,5-a]pyrimidin-3-yl)-5-(trifluoromethyl)-3H-imidazo[4,5-b]pyridine]
24 | 0.0014 | Fc1ccc(F)c([C@H]2CCCN2c2ccn3ncc(-c4nc5cc(C(F)(F)F)ncc5[nH]4)c3n2)c1 [Compound 72, (R)-2-(5-(2-(2,5-difluorophenyl)pyrrolidin-1-yl)pyrazolo[1,5-a]pyrimidin-3-yl)-6-(trifluoromethyl)-3H-imidazo[4,5-c]pyridine]
25 | 0.001 | COc1cccc2oc(-c3cnn4ccc(N5CCC[C@@H]5c5cc(F)ccc5F)nc34)nc12 [Compound 100, (R)-2-(5-(2-(2,5-difluorophenyl)pyrrolidin-1-yl)pyrazolo[1,5-a]pyrimidin-3-yl)-4-methoxybenzo[d]oxazole]
26 | 0.0026 | COc1cc2[nH]c(-c3cnn4ccc(N5CCC[C@@H]5c5cccc(F)c5)nc34)nc2cc1C#N [Compound 196, (R)-2-(5-(2-(3-fluorophenyl)pyrrolidin-1-yl)pyrazolo[1,5-a]pyrimidin-3-yl)-6-methoxy-1H-benzo[d]imidazole-5-carbonitrile]
27 | 0.003 | CC(C)C[C@H](N)C(=O)O[C@@H](C)c1nnc(-c2cnn3ccc(N4CCC[C@@H]4c4cc(F)ccc4F)nc23)[nH]1 [Compound 51, (S)-1-(5-(5-((R)-2-(2,5-difluorophenyl)pyrrolidin-1-yl)pyrazolo[1,5-a]pyrimidin-3-yl)-4H-1,2,4-triazol-3-yl)ethyl L-leucinate hydrochloride]
28 | 0.0329 | Fc1ccc(F)c([C@H]2CCCN2c2ccn3ncc(-c4nc5cc(Cl)c(Cl)cc5[nH]4)c3n2)c1 [Compound 105, (R)-3-(5,6-dichloro-1H-benzo[d]imidazol-2-yl)-5-(2-(2,5-difluorophenyl)pyrrolidin-1-yl)pyrazolo[1,5-a]pyrimidine]
29 | 0.0014 | OC1(c2nnc(-c3cnn4ccc(N5CCC[C@@H]5c5cc(F)ccc5F)nc34)[nH]2)CC1 [Compound 53, (R)-1-(5-(5-(2-(2,5-difluorophenyl)pyrrolidin-1-yl)pyrazolo[1,5-a]pyrimidin-3-yl)-4H-1,2,4-triazol-3-yl)cyclopropan-1-ol]
